Experimental data taken from paper PMC3115046, “Analyzing Airway Inflammation with Chemical Biology: Dissection of Acidic Mammalian Chitinase Function with a Selective Drug-like Inhibitor” (Chemistry & Biology, 2011).

Experiments:
[1] = test system: allergen-challenged mice; conditions: ref Matsumoto et al., 2009, cited from earlier work
[2] = test system: murine CHIT1 [mCHIT1]; conditions: read-out: IC50 murine CHIT1; ref Zheng et al., 2005; Boot et al., 2001; cited from earlier work
[3] = biological target: human chitotriosidase (hCHIT1) (Homo sapiens, UniProt Q13231); assay: Chitinase activity assay with fluorescent 4-MU substrate, hCHIT1; assay type: biochemical; conditions: read-out: IC50 against hCHIT1
[4] = test system: Aspergillus fumigatus chitinase B1 (AfChiB1); parameters: method as in Schuttelkopf et al., 2011; conditions: ref Schuttelkopf et al., 2011; cited from earlier work

Sequence of human chitotriosidase (hCHIT1) (Q13231 22-466): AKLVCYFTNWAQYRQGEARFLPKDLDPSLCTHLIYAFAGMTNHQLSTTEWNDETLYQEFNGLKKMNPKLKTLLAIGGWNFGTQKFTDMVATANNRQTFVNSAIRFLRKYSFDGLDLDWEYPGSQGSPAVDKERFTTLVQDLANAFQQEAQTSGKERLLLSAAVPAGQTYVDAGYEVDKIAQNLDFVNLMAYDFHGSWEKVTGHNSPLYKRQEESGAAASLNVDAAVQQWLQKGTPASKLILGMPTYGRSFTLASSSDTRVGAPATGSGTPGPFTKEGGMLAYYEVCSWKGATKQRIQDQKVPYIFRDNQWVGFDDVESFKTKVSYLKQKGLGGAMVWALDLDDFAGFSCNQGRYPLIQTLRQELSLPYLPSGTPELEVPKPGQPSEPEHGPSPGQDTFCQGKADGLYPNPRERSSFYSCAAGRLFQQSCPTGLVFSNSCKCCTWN

IC50 [3] [µM]	Compound	eosinophilia in allergen-challenged mice ([1]; Zhu et al., 2004)	IC50 [2] [µM]	ligand efficiency against AfChiB1 [4] [kcal·mol^−1·atom^−1]	allergen or IL-13-induced airway hyperresponsiveness ([1]; Zhu et al., 2004)	neutrophil recruitment in allergic mice [1]
–	CC(=O)N[C@H]1[C@H](O[C@H]2[C@@H](O)[C@@H](NC(C)=O)[C@H](O[C@H]3[C@H](O)[C@H]4N=C(N(C)C)O[C@H]4[C@@H]3CO)O[C@@H]2CO)O[C@H](CO)[C@@H](O)[C@H]1O [allosamidin]	significantly reduced	~0.05	–	–	–
8.3 ± 0.7	Cn1cnc2c1c(=O)n(CCCn1c(=O)c3c(ncn3C)n(C)c1=O)c(=O)n2C [bisdionin C]	–	–	−0.41	–	–
–	CNC1=N[C@@H]2[C@@H](O)[C@H](O[C@@H]3O[C@H](CO)[C@@H](O[C@@H]4O[C@H](CO)[C@@H](O)[C@@H](O)[C@H]4NC(C)=O)[C@@H](O)[C@H]3NC(C)=O)[C@@H](CO)[C@@H]2O1 [demethylallosamidin]	significantly reduced	–	–	reduces	did not result in neutrophil recruitment
